Measured values from US11096924B2, “Combination therapies using immuno-dash inhibitors and PGE2 antagonists” (Trustees of Tufts College, priority 2016, dated 2021).
Where “and” joins values, the source holds several entries; their conditions need not be identical. Identical values can stand only once. Like-named read-outs stand apart in the source and are kept apart here.

Key:
[1] = test system: MB49 murine urothelial carcinoma cell line; assay: MB49 efficacy studies in tumor bearing mice; type: in vivo
[2] = phase I trial of talabostat and rituximab in rituximab-resistant lymphoma; cited from earlier work
[3] = Maximum tolerated dose study (single dose) in Sprague Dawley rats; type: in vivo; settings: SD rats, based on serum drug levels, with Pyrrophenone or AACOCF3
Excerpt: Bars show the MTD single dose in SD rats prior to seeing animal death. […] See also FIG. 17 for a similar comparison using cPLA2 inhibitors instead of COX inhibitors.
Bars show the MTD single dose in SD rats prior to seeing animal death. Based on serum drug levels, the addition of a cPLA2 inhibitor to the I-DASH inhibitor increases that MTD dose by at least 20-fold.
Bars show the MTD single dose in SD rats prior to seeing animal death.

RAW 264.7 WT cells = assay: Pyroptosis in RAW 264.7 WT cells; type: cell-based; settings: Mus musculus, RAW264.7
macrophages = assay: Pyroptosis of macrophages in cell culture; type: cell-based; settings: Macrophage; Example 2 table; unit inferred
MV4; 11 Luc-Neo = assay: Pyroptosis in MV4;11 Luc-Neo cells; type: cell-based; settings: Homo sapiens
THP-1 sgGFP = assay: Pyroptosis in THP-1 sgGFP cells; type: cell-based; settings: Homo sapiens
[4] = target: recombinant human dipeptidyl peptidase II (DPPII) (Homo sapiens (Human), UniProt Q9UHL4); assay: In vitro inhibition assay, dipeptidyl peptidase II; type: biochemical
[5] = target: recombinant human dipeptidyl peptidase IV (DPPIV) (Homo sapiens (Human), UniProt P27487); assay: In vitro inhibition assay, dipeptidyl peptidase IV; type: biochemical
[6] = Oral PK profile in mice, plasma drug concentrations; type: in vivo, BALB/c mice; settings: 3 mg/kg oral gavage, individual mice #1-#3
Method: Example 8. […] Drugs dissolved in pH 2 water at 0.3 mg/mL. […] 2. Plasma prepared by centrifugation. 3. Drug concentrations measured by LCMS.

[7] = target: recombinant human fibroblast activation protein (FAP) (Homo sapiens (Human), UniProt Q12884); assay: In vitro inhibition assay, fibroblast activation protein; type: biochemical
DPP7 = DPP7 (Homo sapiens (Human), UniProt Q9UHL4); assay: EnPlex assay DPP7; type: biochemical
[8] = target: recombinant human dipeptidyl peptidase 8 (DPP8) (Homo sapiens (Human), UniProt Q6V1X1); assay: In vitro inhibition assay, dipeptidyl peptidase 8; type: biochemical
recombinant human dipeptidyl peptidase 8 (DPP8), sequence (Q6V1X1 whole entry): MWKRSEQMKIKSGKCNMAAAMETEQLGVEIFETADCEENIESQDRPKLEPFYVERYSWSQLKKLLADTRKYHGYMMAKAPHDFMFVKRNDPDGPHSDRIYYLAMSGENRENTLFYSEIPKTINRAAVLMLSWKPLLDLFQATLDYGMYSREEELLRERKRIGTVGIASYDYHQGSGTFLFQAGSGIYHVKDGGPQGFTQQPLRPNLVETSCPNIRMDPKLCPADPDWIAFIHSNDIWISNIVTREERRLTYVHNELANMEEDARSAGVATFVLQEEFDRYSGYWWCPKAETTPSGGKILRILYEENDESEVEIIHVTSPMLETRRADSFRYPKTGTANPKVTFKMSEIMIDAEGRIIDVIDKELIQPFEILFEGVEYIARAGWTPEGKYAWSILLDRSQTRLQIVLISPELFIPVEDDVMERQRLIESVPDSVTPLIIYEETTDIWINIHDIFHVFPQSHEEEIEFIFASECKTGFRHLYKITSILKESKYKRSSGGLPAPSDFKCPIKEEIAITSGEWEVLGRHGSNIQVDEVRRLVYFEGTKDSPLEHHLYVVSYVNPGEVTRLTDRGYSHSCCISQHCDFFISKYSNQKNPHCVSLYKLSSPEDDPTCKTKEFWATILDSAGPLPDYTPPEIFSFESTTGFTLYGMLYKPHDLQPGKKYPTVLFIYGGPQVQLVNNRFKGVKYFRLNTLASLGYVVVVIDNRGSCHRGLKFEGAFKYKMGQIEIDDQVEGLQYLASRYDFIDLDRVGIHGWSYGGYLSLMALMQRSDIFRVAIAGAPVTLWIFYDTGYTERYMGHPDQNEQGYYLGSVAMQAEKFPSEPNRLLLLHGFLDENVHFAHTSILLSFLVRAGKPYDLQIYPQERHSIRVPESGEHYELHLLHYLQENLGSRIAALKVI

recombinant human dipeptidyl peptidase IV (DPPIV), sequence (P27487 whole entry): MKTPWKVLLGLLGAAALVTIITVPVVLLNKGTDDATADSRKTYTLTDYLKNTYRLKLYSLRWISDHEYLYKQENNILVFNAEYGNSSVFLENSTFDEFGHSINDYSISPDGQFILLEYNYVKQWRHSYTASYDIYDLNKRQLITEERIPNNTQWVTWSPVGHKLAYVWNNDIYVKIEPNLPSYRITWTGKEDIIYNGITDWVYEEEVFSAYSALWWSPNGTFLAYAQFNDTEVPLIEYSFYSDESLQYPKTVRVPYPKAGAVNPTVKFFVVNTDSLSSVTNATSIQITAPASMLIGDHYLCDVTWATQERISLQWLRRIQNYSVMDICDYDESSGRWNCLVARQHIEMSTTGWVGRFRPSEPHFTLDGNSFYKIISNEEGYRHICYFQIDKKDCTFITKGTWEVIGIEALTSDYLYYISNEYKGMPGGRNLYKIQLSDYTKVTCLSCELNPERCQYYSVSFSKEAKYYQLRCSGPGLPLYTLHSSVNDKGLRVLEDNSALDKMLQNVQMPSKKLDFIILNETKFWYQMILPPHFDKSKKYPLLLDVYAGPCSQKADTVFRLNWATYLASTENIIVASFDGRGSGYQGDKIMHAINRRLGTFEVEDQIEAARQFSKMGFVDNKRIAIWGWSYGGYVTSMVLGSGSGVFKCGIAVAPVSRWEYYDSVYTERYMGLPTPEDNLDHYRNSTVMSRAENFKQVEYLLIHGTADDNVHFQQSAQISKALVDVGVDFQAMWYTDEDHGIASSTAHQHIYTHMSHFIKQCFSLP
recombinant human fibroblast activation protein (FAP), sequence (Q12884 whole entry): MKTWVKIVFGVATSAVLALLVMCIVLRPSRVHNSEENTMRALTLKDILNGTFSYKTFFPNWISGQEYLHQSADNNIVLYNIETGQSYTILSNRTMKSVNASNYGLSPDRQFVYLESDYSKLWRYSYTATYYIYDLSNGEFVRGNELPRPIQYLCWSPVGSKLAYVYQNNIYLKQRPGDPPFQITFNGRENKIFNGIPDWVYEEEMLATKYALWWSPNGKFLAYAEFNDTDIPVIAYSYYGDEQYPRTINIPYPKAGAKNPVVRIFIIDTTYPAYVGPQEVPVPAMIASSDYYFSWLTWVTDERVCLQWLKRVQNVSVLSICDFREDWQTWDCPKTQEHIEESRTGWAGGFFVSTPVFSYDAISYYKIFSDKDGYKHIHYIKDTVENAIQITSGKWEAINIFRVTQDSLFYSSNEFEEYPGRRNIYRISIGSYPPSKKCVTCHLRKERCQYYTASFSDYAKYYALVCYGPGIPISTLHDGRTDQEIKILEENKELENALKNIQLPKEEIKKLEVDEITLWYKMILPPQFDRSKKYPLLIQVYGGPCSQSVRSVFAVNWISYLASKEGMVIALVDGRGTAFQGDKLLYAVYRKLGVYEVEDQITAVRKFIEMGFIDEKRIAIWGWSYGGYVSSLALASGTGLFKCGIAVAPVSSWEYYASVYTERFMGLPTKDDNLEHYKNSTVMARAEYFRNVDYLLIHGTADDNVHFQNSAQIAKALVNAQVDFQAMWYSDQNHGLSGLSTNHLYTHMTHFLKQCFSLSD

SMILES: CC(C)[C@H](N)C(=O)N1CCC[C@H]1B(O)O [Val-boroPro, Valine-boroProline]
- tumor regression in combination with celecoxib ([1]; 20 microgram dose of Val-boroPro plus celecoxib, individual animal curves): facilitated the achievement of tumor regression
- antitumor activity in combination with celecoxib ([1]; Val-boroPro plus celecoxib, tumor volumes over time): increased the antitumor activity of Val-boroPro markedly (statistically significantly) and in a dose-dependent manner
- partial response [2]: 3 patients
- increase of MTD dose on addition of a cPLA2 inhibitor [3]: at least 20 fold
- Average [G-CSF] at 6 hrs (G-CSF; 20 μg/animal PO): 55000 pg/mL
- Average [G-CSF] at 6 hrs (G-CSF; 20 μg/animal SC): 97000 pg/mL
- IC50 (RAW 264.7 WT cells): 98 nM
- IC50 (macrophages): 49 nM
- IC50 (MV4; 11 Luc-Neo): 60 nM
- IC50 (THP-1 sgGFP): 168 nM

SMILES: N[C@H](C(=O)N1CCC[C@H]1B(O)O)C1(C(F)(F)F)CC1 [compound 4949]
- IC50 ([4]; DPP2): 39 nM

SMILES: N[C@@H](CC(=O)N1CCn2c(nnc2C(F)(F)F)C1)Cc1cc(F)c(F)cc1F [Sitagiptin, reference compound]
- Average [G-CSF] at 6 hrs (G-CSF; 100 μg/animal SC): 100 pg/mL
- Average [G-CSF] at 6 hrs (G-CSF; 1000 μg/animal PO): 340 pg/mL
- Average [G-CSF] at 6 hrs (G-CSF; 2000 μg/animal SC): 950 pg/mL

SMILES: N[C@H](C(=O)N1CCC[C@H]1B(O)O)C1CCCCC1 [compound 1797, Crg-boroPro]
- Average [G-CSF] at 6 hrs (G-CSF; 20 μg/animal PO): 20000 pg/mL
- IC50 (macrophages): 23 nM

SMILES: CC1(C)CN[C@@H]1C(=O)N1CCC[C@H]1B(O)O (relative stereo) [compound 5362]
- IC50 ([4]; DPP2): 67 nM
- IC50 [5]: 0.5 nM

SMILES: N[C@H](C(=O)N1CCC[C@H]1B(O)O)C12CC3CC(CC(C3)C1)C2 (relative stereo) [ARI-5544, Gly(1-adamantyl)-boroPro]
- Average [G-CSF] at 6 hrs (G-CSF; 5 μg/animal PO): 650 pg/mL
- Average [G-CSF] at 6 hrs (G-CSF; 20 μg/animal PO): 30000 pg/mL
- Average [G-CSF] at 6 hrs (G-CSF; 20 μg/animal SC): 73000 pg/mL
- IC50 ([4]; DPP2): 27 nM
- IC50 ([4]; compound incubated at room temperature overnight at pH 2.0 or pH 7.4 prior to the assays, read-out: DPPII IC50): 21 nM
- concentration in Plasma ([6]; 5 min post-dose): 0.11 µM and 0.22 µM
- concentration in Plasma ([6]; 20 min post-dose): 0.17 µM and 0.18 µM
- concentration in Plasma ([6]; 30 min post-dose): 0.22 µM and 0.17 µM
- concentration in Plasma ([6]; 40 min post-dose): 0.13 µM and 0.14 µM
- concentration in Plasma ([6]; 60 min post-dose): 0.11 µM and 0.09 µM
- concentration in Plasma ([6]; 120 min post-dose): 0.03 µM and 0.05 µM
- concentration in Plasma ([6]; 240 min post-dose): 0.01 µM and 0.02 µM
- concentration at 5 min ([6]; male, BALB/c, mouse, plasma, oral, 3 mg/kg, 5 min post-dose): 160 nM
- concentration at 10 min ([6]; male, BALB/c, mouse, plasma, oral, 3 mg/kg, 10 min post-dose): 270 nM
- concentration at 20 min ([6]; male, BALB/c, mouse, plasma, oral, 3 mg/kg, 20 min post-dose): 140 nM
- concentration at 30 min ([6]; male, BALB/c, mouse, plasma, oral, 3 mg/kg, 30 min post-dose): 110 nM
- concentration at 40 min ([6]; male, BALB/c, mouse, plasma, oral, 3 mg/kg, 40 min post-dose): 120 nM
- concentration at 60 min ([6]; male, BALB/c, mouse, plasma, oral, 3 mg/kg, 60 min post-dose): 80 nM
- concentration at 120 min ([6]; male, BALB/c, mouse, plasma, oral, 3 mg/kg, 120 min post-dose): 30 nM
- concentration at 240 min ([6]; male, BALB/c, mouse, plasma, oral, 3 mg/kg, 240 min post-dose): 20 nM

SMILES: CC(C)(C)[C@H](N)C(=O)N1CCC[C@H]1B(O)O [ARI-4175]
- Average [G-CSF] at 6 hrs (G-CSF; 20 μg/animal PO): 19000 pg/mL
- Average [G-CSF] at 6 hrs (G-CSF; 20 μg/animal SC): 65000 pg/mL

SMILES: CC1([C@H](N)C(=O)N2CCC[C@H]2B(O)O)CC1 (relative stereo) [compound 4367]
- IC50 ([4]; DPP2): 34 nM
- IC50 [7]: 0.35 µM
- IC50 [5]: 1.4 nM

SMILES: NC(N)=NCCC[C@H](N)C(=O)N1CCC[C@H]1B(O)O [Arg-boroPro]
- Average [G-CSF] at 6 hrs (G-CSF; 20 μg/animal PO): 320 pg/mL
- Average [G-CSF] at 6 hrs (G-CSF; 20 μg/animal SC): 160 pg/mL
- Average [G-CSF] at 6 hrs (G-CSF; 200 μg/animal PO): 930 pg/mL
- Average [G-CSF] at 6 hrs (G-CSF; 200 μg/animal SC): 670 pg/mL
- Average [G-CSF] at 6 hrs (G-CSF; 2000 μg/animal PO): 3500 pg/mL
- Average [G-CSF] at 6 hrs (G-CSF; 2000 μg/animal SC): 31000 pg/mL

SMILES: N[C@H](C(=O)N1CCC[C@H]1B(O)O)C12CC3CC(CC(O)(C3)C1)C2 (relative stereo) [ARI-3102A]
- IC50 (DPP7): > 100 nM
- IC50 ([4]; DPP2): 81 nM

SMILES: CC1(C)CCCN[C@@H]1C(=O)N1CCC[C@H]1B(O)O (relative stereo) [compound 5349]
- IC50 ([4]; DPP2): 610 nM
- IC50 [7]: 14 µM
- IC50 [8]: 250 nM
- IC50 [5]: 92 nM

SMILES: N[C@H](C(=O)N1CCC[C@H]1B(O)O)C12CC3CC(CC(F)(C3)C1)C2 [ARI-5870]
- IC50 ([4]; DPP2): 58 nM
